How the values were obtained:
[1] = test system: CD8-positive T cells in Hepa1-6 tumor tissue; assay: flow cytometry of CD45/CD8-positive cells in resected tumor tissue (Example 1); assay type: in vivo, mouse; conditions: 10 mg/kg/day, after 3 weeks
Protocol: (§1) (1) Separately, 1×10^6 mouse hepatoma cells (Hepa1-6) were implanted into the subcutaneous stratum of the armpits of 20 […] mice aged 3-4 weeks. The mice were randomized into four groups: a blank control group, a 3 mg/kg/day lenvatinib group, a 10 mg/kg/day lenvatinib group, and a 30 mg/kg/day lenvatinib group. (2) When the size of the subcutaneous tumor reached 100-200 mm^3: each mouse of the 3 mg/kg/day lenvatinib group was orally administered with 3 mg/kg/day lenvatinib by gastric gavage once a day; each mouse of the 10 mg/kg/day lenvatinib group was orally administered with 10 mg/kg/day lenvatinib by gastric gavage once a day; and each mouse of the 30 mg/kg/day lenvatinib group was orally administered with 30 mg/kg/day lenvatinib by gastric gavage once a day. According to the existing literature, 30 mg/kg was a routine dose of lenvatinib (Selleck) for laboratory mice. (4) After 3 weeks, the mice were sacrificed, tumor tissues were resected, a part of fresh tumor tissue was separated and ground into a single cell suspension, and the proportion of positive cells labeled with CD45 and CD8 was detected by flow cytometry; meanwhile, the other part of tumor tissue was fixed and embedded, and vascular markers (CD31, α-SMA, and VEGFR2) and CD8-positive T cell infiltration were detected by immunohistochemistry.

[2] = test system: mouse hepatoma cells (Hepa1-6) xenograft; assay: subcutaneous tumorigenicity assay, tumor size (Example 1); assay type: in vivo
Protocol: 3. Detection of the effects of different doses of lenvatinib on hepatoma xenograft by subcutaneous tumorigenicity assay of immunocompetent C57B/L mice. (1) Separately, 1×10^6 mouse hepatoma cells (Hepa1-6) were implanted into the subcutaneous stratum of the armpits of 20 […] mice aged 3-4 weeks. The mice were randomized into four groups: a blank control group, a 3 mg/kg/day lenvatinib group, a 10 mg/kg/day lenvatinib group, and a 30 mg/kg/day lenvatinib group. (2) When the size of the subcutaneous tumor reached 100-200 mm^3: each mouse of the 3 mg/kg/day lenvatinib group was orally administered with 3 mg/kg/day lenvatinib by gastric gavage once a day; each mouse of the 10 mg/kg/day lenvatinib group was orally administered with 10 mg/kg/day lenvatinib by gastric gavage once a day; and each mouse of the 30 mg/kg/day lenvatinib group was orally administered with 30 mg/kg/day lenvatinib by gastric gavage once a day. According to the existing literature, 30 mg/kg was a routine dose of lenvatinib (Selleck) for laboratory mice. (3) The tumor size was measured every two days, and the difference in tumor size was compared among groups.

[3] = test system: CD31, NG2, CD8 in Hepa1-6 tumor tissue; assay: immunohistochemistry of vascular markers and CD8-positive T cell infiltration in tumor tissue (Example 1); assay type: in vivo, mouse
Protocol: as §1

[4] = test system: mouse hepatoma cells (Hepa1-6) xenograft; assay: subcutaneous tumorigenicity assay, lenvatinib plus anti-PD-1 monoclonal antibody (Example 2); assay type: in vivo; conditions: for growth of hepatoma xenograft: oral gavage, 3 weeks
Source text: Detection of the effects of different doses of lenvatinib plus anti-PD-1 monoclonal antibody on hepatoma xenograft by subcutaneous tumorigenicity assay of immunocompetent C57B/L mice.
(1) Separately, 1×10^6 mouse hepatoma cells (Hepa1-6) were implanted into the subcutaneous stratum of the armpits of 24 C57B/L mice aged 3-4 weeks. The mice were randomized into six groups: The mice were randomized into six groups: a blank control group, an anti-PD-1 monoclonal antibody alone group, a low-dose lenvatinib group, a high-dose lenvatinib group, a low-dose lenvatinib+anti-PD-1 monoclonal antibody group, and a high-dose lenvatinib+anti-PD-1 monoclonal antibody group.
(2) When the size of the subcutaneous tumor reached 100-200 mm^3: each mouse of the anti-PD-1 monoclonal antibody alone group was intraperitoneally administered with 200 μg of anti-PD-1 monoclonal antibody every three days; each mouse of the low-dose lenvatinib group was orally administered with 10 mg/kg/day lenvatinib by gastric gavage once a day; each mouse of the high-dose lenvatinib group was orally administered with 30 mg/kg/day lenvatinib by gastric gavage once a day; each mouse of the low-dose lenvatinib group+anti-PD-1 monoclonal antibody was orally administered with 10 mg/kg/day lenvatinib by gastric gavage once a day and intraperitoneally administered with 200 μg of anti-PD-1 monoclonal antibody every three days; and each mouse of the high-dose lenvatinib group+anti-PD-1 monoclonal antibody was orally administered with 30 mg/kg/day lenvatinib by gastric gavage once a day and intraperitoneally administered with 200 μg of anti-PD-1 monoclonal antibody every three days.
(4) After 3 weeks, the mice were sacrificed, and data statistics and reduction were conducted.

Compound: COc1cc2nccc(Oc3ccc(NC(=O)NC4CC4)c(Cl)c3)c2cc1C(N)=O [lenvatinib]
- percentage of CD8-positive T cells in the tumor tissue [1]: significantly increased
- difference in tumor growth among the three dose groups ([2]; 3 vs 10 vs 30 mg/kg/day lenvatinib): no significant difference
- growth of hepatoma xenograft (tumor size) ([2]; all three doses 3, 10, 30 mg/kg/day, oral gavage once a day, 3 weeks): inhibit the growth of hepatoma xenograft
- infiltrating CD8-positive T cells in the tumor tissue ([3]; 10 mg/kg/day): significantly increased
- expression of peripheral cell marker molecule NG2 ([3]; 10 mg/kg/day only): upregulation
- vascular normalization in tumor tissue ([3]; 10 mg/kg/day only): significantly improve vascular normalization
- microvessel density (CD31) in hepatoma tissue ([3]; all three doses 3, 10, 30 mg/kg/day): significantly reduce
- difference in tumor growth between low-dose and high-dose groups ([4]; 10 vs 30 mg/kg/day lenvatinib alone): no significant difference
- growth of hepatoma xenograft ([4]; high-dose lenvatinib 30 mg/kg/day): inhibit the growth of hepatoma xenograft
- growth of hepatoma xenograft ([4]; low-dose lenvatinib 10 mg/kg/day): inhibit the growth of hepatoma xenograft
